Source: patent EP0361645B1, “Organic hydrazine derivatives for pharmaceutical use” (ROHM AND HAAS COMPANY, priority 1988, dated 1990)

Experiments:
[1] = system: Kr cells; assay: Process elaboration and inhibition of cell proliferation in Kr cells; assay type: cell-based, Drosophila; conditions: at saturating concentrations
Experimental: The invention will now be further described by way of exemplification and by reference to the drawings in which; • Figure 1. Both 20-hydroxyecdysone and Example No. 3 induce process elaboration (A) and inhibition of cell proliferation (B) in Kr cells in a dose-dependent manner. Initial cell density was 2 X 10^6 cells/ml; after incubation of 1 ml aliquots of the cells with the compound for 48 hours the cells were triturated gently and the percentage of cells responding (with processes longer than approximately 17 um, see Cherbas et al. 189 Wilhelm Roux's Arch. 1 (1980)) and total cell density was determined by hemocytom- eter counting, relative to ethanol (1 ul)-treated controls. Determinations were in triplicate for each dose. […] Induction of acetylcholinesterase by varying concentrations of 20-hydroxyecdysone and Example No. 3. Kr cells at an initial density of 3 X 10^6 cells/ml (10 ml per sample) were incubated with the agonist for three days. After harvesting, by centrifugation at 3000 X g, the cell pellets were washed with Robb's Drosophila saline (18, 2 X 5 ml) at 4 ° C, then lysed by sonication in 1 ml of phosphate buffer (pH 7.4, I = 0.1 M) containing 0.5 M NaCI, 0.25 M EDTA and 0.5% TRITON? X-100. See Cherbas, 197 Science 275 (1977). Triton is a registered trademark of Rohm and Haas Company for a alkylaryl polyoxyethylene glycol surfactant. After centrifugation at 16,000 X g, the supernatants were assayed for acetylcholinesterase activity by an adaptation of the method of Ellman et al., 7 Biochem. Pharmacol. 88 (1961), by subtracting out any 412 nm absorbance observed in incubations in the presence of 2 X 10-5 eserine sulfate. Thus reaction mixtures contained 50 ul of enzyme extract, 20 ul eserine (blank tubes only) and 1.0 ml of 0.5 mM acetylthiocholine, 0.3 mM dithiobisnitrobenzoic acid in phosphate buffer (pH 7.4, I = 0.1 M). Incubations were at 25 ° C for two hours; reactions in active tubes were terminated by addition of eserine. Absorbance at 412 nm was then measured. Protein concentration in extracts was measured by the Biorad method. […] Scatchard plot of ^3H-ponasterone A binding to Kr cell cytosolic receptor extracts in the presence of differing concentrations of Example No. 3. Cytosolic extract preparation and ecdysteroid receptor assays were essentially as described in Sage, 111 Meth. in Enzymol. 458 (1985). Example No. 3 was added in 1 ul DMSO to 50 ul of radioligand in 10 mM Tris buffer (pH 7.2) and 50 ul of undiluted cytosol extract. […] Ecdysteroid titers were measured by a radioimmunoassay adapted from Warren et al., 40 Experientia 393 (1984) with Protein A-Staph. aureus suspension (Sigma) used as the reagent to separate bound from free ligand. […]

[2] = biological target: T1, ecdysone receptor (Drosophila melanogaster, UniProt P34021); assay: ^3H-ponasterone A binding to / displacement from Kr cell cytosolic receptor extracts; conditions: for displacement of ^3H-ponasterone A from cytosolic receptor extracts: at saturating concentrations
T1 construct: endogenous in cells; host or cells: Drosophila Kr (Kc) cells, undiluted cytosolic extract
T1 sequence (P34021 1-878): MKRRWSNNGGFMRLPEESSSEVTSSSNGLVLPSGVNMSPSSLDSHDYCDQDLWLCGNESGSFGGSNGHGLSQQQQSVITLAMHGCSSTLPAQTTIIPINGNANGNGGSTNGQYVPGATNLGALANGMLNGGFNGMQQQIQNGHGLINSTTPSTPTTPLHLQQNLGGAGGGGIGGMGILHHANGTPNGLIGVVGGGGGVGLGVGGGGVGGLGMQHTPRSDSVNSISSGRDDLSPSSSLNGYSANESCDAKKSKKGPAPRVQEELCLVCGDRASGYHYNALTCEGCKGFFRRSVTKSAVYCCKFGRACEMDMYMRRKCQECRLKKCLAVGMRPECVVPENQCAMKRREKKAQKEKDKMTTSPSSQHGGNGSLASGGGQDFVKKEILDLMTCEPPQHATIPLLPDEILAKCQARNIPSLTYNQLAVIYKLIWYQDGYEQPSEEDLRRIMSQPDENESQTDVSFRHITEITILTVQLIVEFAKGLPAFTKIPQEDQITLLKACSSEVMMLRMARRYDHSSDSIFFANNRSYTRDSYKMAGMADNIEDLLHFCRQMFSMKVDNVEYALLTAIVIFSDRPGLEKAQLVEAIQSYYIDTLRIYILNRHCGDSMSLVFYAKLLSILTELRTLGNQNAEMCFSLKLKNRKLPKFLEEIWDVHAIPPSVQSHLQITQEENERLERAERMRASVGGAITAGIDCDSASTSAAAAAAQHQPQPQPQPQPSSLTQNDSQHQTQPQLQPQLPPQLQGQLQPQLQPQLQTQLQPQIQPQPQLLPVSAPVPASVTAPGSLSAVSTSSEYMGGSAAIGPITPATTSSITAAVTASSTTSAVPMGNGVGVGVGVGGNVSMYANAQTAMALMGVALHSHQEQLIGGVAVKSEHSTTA
T1 sequence (P20153 1-508 partner): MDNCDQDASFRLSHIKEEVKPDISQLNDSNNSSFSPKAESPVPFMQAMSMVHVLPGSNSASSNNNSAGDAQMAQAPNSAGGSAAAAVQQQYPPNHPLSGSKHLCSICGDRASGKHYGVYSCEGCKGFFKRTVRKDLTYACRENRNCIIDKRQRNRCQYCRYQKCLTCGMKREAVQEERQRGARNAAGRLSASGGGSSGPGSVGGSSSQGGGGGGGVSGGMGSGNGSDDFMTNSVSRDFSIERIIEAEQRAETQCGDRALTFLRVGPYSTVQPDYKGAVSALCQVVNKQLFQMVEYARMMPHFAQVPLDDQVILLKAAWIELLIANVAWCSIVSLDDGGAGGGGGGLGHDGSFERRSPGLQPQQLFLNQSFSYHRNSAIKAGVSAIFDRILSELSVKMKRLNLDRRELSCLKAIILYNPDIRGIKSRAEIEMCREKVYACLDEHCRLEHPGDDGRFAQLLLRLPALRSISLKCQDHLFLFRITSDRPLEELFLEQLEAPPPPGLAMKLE
Experimental: The invention will now be further described by way of exemplification and by reference to the drawings in which; • Figure 1. Both 20-hydroxyecdysone and Example No. 3 induce process elaboration (A) and inhibition of cell proliferation (B) in Kr cells in a dose-dependent manner. Initial cell density was 2 X 10^6 cells/ml; after incubation of 1 ml aliquots of the cells with the compound for 48 hours the cells were triturated gently and the percentage of cells responding (with processes longer than approximately 17 um, see Cherbas et al. 189 Wilhelm Roux's Arch. 1 (1980)) and total cell density was determined by hemocytom- eter counting, relative to ethanol (1 ul)-treated controls. Determinations were in triplicate for each dose. […] Induction of acetylcholinesterase by varying concentrations of 20-hydroxyecdysone and Example No. 3. Kr cells at an initial density of 3 X 10^6 cells/ml (10 ml per sample) were incubated with the agonist for three days. After harvesting, by centrifugation at 3000 X g, the cell pellets were washed with Robb's Drosophila saline (18, 2 X 5 ml) at 4 ° C, then lysed by sonication in 1 ml of phosphate buffer (pH 7.4, I = 0.1 M) containing 0.5 M NaCI, 0.25 M EDTA and 0.5% TRITON? X-100. See Cherbas, 197 Science 275 (1977). Triton is a registered trademark of Rohm and Haas Company for a alkylaryl polyoxyethylene glycol surfactant. After centrifugation at 16,000 X g, the supernatants were assayed for acetylcholinesterase activity by an adaptation of the method of Ellman et al., 7 Biochem. Pharmacol. 88 (1961), by subtracting out any 412 nm absorbance observed in incubations in the presence of 2 X 10-5 eserine sulfate. Thus reaction mixtures contained 50 ul of enzyme extract, 20 ul eserine (blank tubes only) and 1.0 ml of 0.5 mM acetylthiocholine, 0.3 mM dithiobisnitrobenzoic acid in phosphate buffer (pH 7.4, I = 0.1 M). Incubations were at 25 ° C for two hours; reactions in active tubes were terminated by addition of eserine. Absorbance at 412 nm was then measured. Protein concentration in extracts was measured by the Biorad method. […] Scatchard plot of ^3H-ponasterone A binding to Kr cell cytosolic receptor extracts in the presence of differing concentrations of Example No. 3. Cytosolic extract preparation and ecdysteroid receptor assays were essentially as described in Sage, 111 Meth. in Enzymol. 458 (1985). Example No. 3 was added in 1 ul DMSO to 50 ul of radioligand in 10 mM Tris buffer (pH 7.2) and 50 ul of undiluted cytosol extract. After incubation overnight at 0.5 ° C, bound label was separated from free by addition of 300 ul 1% HCI-washed charcoal (Sigma) and 0.1% Dextran T70 (Pharmacia) in Tris buffer, centrifugation (13,000 X g, 3 min, 4 ° C) and liquid scintillation counting of a 300 ul aliquot of the supernatant in 15 ml Hydrofluor (National Diagnostics). Points are means of duplicate determinations. […] Relative ability of 20 hydroxyecdysone and Example No. 3 to displace ^3H-ponasterone A from cytosolic receptor extracts. Conditions were as in Figure 3 except that only 0.5 nM ponasterone A was used. • Points are means of duplicate determinations. For 20-hydroxyecdysone EC50 = 0.1 uM while for Example No. 3 EC50 = 3.0 uM. Control binding = 10 femtomoles ^3H-ponasterone A bound per mg cytosol protein. • Figure 4. Effects of 10 ppm Example No. 3 administered in artificial diet to newly ecdysed fourth instar (L4) M. sexta, monitoring (A)immunoreactive hemolymph ecdysteroid titers and (B)weight gain. Ecdysteroid titers were measured by a radioimmunoassay adapted from Warren et al., 40 Experientia 393 (1984) with Protein A-Staph. aureus suspension (Sigma) used as the reagent to separate bound from free ligand. The antiecdysone antiserum was formed by reaction of 20-hydroxyecdysone with carboxymethox- yamine resulting in the corresponding ecdysteroid 6-oxime acid. […] All samples were diluted appropriately in borate buffer pH 8.0 and assayed in duplicate. […]

[3] = system: antiecdysone antiserum; assay: Binding by antiecdysone antiserum (radioimmunoassay); conditions: ^3H-alpha ecdysone as the radioligand
Experimental: The invention will now be further described by way of exemplification and by reference to the drawings in which; • Figure 1. Both 20-hydroxyecdysone and Example No. 3 induce process elaboration (A) and inhibition of cell proliferation (B) in Kr cells in a dose-dependent manner. Initial cell density was 2 X 10^6 cells/ml; after incubation of 1 ml aliquots of the cells with the compound for 48 hours the cells were triturated gently and the percentage of cells responding (with processes longer than approximately 17 um, see Cherbas et al. 189 Wilhelm Roux's Arch. 1 (1980)) and total cell density was determined by hemocytom- eter counting, relative to ethanol (1 ul)-treated controls. Determinations were in triplicate for each dose. […] Induction of acetylcholinesterase by varying concentrations of 20-hydroxyecdysone and Example No. 3. Kr cells at an initial density of 3 X 10^6 cells/ml (10 ml per sample) were incubated with the agonist for three days. After harvesting, by centrifugation at 3000 X g, the cell pellets were washed with Robb's Drosophila saline (18, 2 X 5 ml) at 4 ° C, then lysed by sonication in 1 ml of phosphate buffer (pH 7.4, I = 0.1 M) containing 0.5 M NaCI, 0.25 M EDTA and 0.5% TRITON? X-100. See Cherbas, 197 Science 275 (1977). Triton is a registered trademark of Rohm and Haas Company for a alkylaryl polyoxyethylene glycol surfactant. After centrifugation at 16,000 X g, the supernatants were assayed for acetylcholinesterase activity by an adaptation of the method of Ellman et al., 7 Biochem. Pharmacol. 88 (1961), by subtracting out any 412 nm absorbance observed in incubations in the presence of 2 X 10-5 eserine sulfate. […] Absorbance at 412 nm was then measured. Protein concentration in extracts was measured by the Biorad method. […] Ecdysteroid titers were measured by a radioimmunoassay adapted from Warren et al., 40 Experientia 393 (1984) with Protein A-Staph. aureus suspension (Sigma) used as the reagent to separate bound from free ligand. […]

Structure (SMILES)	ecdysone-like responses in whole Kr cells [1]	displacement of ^3H-ponasterone A from cytosolic receptor extracts [2]	further results
O=C(NC(=O)c1c(F)cccc1F)Nc1cc(Cl)c(Oc2ncc(C(F)(F)F)cc2Cl)c(Cl)c1 [1-(3,5-dichloro-4-(3-chloro-5-trifluoromethyl-2-pyridyloxy)phenyl)-3-(2,6-difluorobenzoyl)urea]	failed to produce ecdysone-like responses	did not displace	–
O=C(NC(=O)c1c(F)cccc1F)Nc1ccc(Cl)cc1 [1-(4-chloro-phenyl)-3-(2,6-difluorobenzoyl)urea]	failed to produce ecdysone-like responses	did not displace	–
CC(C)CC[C@@H](O)[C@](C)(O)[C@H]1CC[C@@]2(O)C3=CC(=O)[C@@H]4C[C@@H](O)[C@@H](O)C[C@]4(C)[C@H]3CC[C@]12C [^3H-ponasterone A, ponasterone A]	–	–	Bmax ([2]; Figure 3A legend, in the absence of Example No. 3): 0.79 nm; Kd ([2]; Scatchard plot, in the absence of Example No. 3): 0.29 nM; Bmax ([2]; text b415, in the absence of Example No. 3): 0.71 nM
C[C@H]([C@H](O)CCC(C)(C)O)[C@H]1CC[C@@]2(O)C3=CC(=O)[C@@H]4C[C@@H](O)[C@@H](O)C[C@]4(C)[C@H]3CC[C@]12C [alpha-ecdysone, reference compound]	–	–	fold greater affinity than 20-hydroxyecdysone [3]: 2.7 fold
